# According to patent publication US5723439A (priority 1991, dated 1998):
# System: influenza A/Aichi/2/68 (H3N2) virus
# Assay type: in vivo, mice
# Conditions: intraperitoneal 15,000 KIU/mouse/day, 5-6 injections daily for 7 days
substance,measurement,value
aprotinin,protective effect (survival),30%
